Measured values as given in paper PMC9303312, “Balancing Histone Deacetylase (HDAC) Inhibition and Drug‐likeness: Biological and Physicochemical Evaluation of Class I Selective HDAC Inhibitors” (Chemmedchem, 2022).
≈ marks a conversion by molar mass, not a printed value. Where two headings read alike, the source gives them in different places. Values belong to the molecule of their own block, whether it stands above or below them.

Legend:
[1] = Solubility in PBS buffer by OECD flask method with HPLC quantification; format: physicochemical
HDAC1 [2] = biological target: T1, HDAC1 (Homo sapiens, UniProt Q13547); assay: Binding kinetics via the Progression Method; format: biochemical; settings: relationship between kobs and [I]; triplicates
T1 sequence (Q13547 whole entry): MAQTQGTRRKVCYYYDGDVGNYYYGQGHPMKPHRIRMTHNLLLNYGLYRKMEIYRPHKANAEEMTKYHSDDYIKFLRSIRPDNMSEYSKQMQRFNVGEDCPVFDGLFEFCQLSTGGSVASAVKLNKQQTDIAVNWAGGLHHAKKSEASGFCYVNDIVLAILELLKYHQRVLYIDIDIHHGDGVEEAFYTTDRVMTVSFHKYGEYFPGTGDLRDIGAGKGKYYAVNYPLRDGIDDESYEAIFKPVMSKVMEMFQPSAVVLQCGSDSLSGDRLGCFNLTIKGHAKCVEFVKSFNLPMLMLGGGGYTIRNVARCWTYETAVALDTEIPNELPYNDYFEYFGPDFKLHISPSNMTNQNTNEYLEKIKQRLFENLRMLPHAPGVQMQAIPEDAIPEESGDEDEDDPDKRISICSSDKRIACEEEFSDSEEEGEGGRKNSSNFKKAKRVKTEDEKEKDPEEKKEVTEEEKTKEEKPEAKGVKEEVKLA

HDAC3 [3] = biological target: T2, HDAC3 (Homo sapiens, UniProt O15379); assay: Binding kinetics via the Progression Method; format: biochemical
T2 sequence (O15379 whole entry): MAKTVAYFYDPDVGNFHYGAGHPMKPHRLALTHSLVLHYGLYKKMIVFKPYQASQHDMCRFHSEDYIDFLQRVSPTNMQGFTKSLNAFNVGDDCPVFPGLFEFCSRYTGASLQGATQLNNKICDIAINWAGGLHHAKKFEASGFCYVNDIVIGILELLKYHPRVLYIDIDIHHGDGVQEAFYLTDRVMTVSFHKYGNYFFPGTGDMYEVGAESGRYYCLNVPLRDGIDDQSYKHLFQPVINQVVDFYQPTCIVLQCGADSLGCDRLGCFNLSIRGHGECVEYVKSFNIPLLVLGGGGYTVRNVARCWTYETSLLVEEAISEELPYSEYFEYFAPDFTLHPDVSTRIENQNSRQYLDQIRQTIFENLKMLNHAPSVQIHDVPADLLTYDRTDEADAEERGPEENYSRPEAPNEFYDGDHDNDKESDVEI
T2 sequence (Q9Y618 395-489 partner limits assumed): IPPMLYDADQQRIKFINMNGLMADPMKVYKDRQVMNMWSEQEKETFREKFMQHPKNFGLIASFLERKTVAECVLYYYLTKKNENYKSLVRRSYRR

[4] = LogD7.4 by OECD slow-stirring method with HPLC quantification; settings: 1-octanol/PBS buffer (mutually saturated)
HDAC1 [5] = biological target: T1, HDAC1; assay: IC50-shift experiments (varied preincubation time); format: biochemical; settings: triplicates
HDAC3 [6] = biological target: T2, HDAC3; assay: IC50-shift experiments (varied preincubation time); format: biochemical; settings: triplicates
HDAC1 [7] = biological target: T1, HDAC1; assay: 100-fold Jump-Dilution experiments; format: biochemical; settings: diluted inhibitor concentration as indicated per compound, vehicle [DMSO 1 %]=111.9
HDAC3 [8] = biological target: T2, HDAC3; assay: 100-fold Jump-Dilution experiments; format: biochemical; settings: diluted inhibitor concentration as indicated per compound, vehicle [DMSO 1%] = 56.7
physchem = settings: 1-octanol/PBS buffer (mutually saturated), pH 7.4
HDAC1 [9] = biological target: T1, HDAC1; assay: In vitro HDAC inhibition preincubation assay (ZMAL substrate)
HDAC2 [10] = biological target: T3, HDAC2 (Homo sapiens, UniProt Q92769); assay: as above
T3 sequence (Q92769 whole entry): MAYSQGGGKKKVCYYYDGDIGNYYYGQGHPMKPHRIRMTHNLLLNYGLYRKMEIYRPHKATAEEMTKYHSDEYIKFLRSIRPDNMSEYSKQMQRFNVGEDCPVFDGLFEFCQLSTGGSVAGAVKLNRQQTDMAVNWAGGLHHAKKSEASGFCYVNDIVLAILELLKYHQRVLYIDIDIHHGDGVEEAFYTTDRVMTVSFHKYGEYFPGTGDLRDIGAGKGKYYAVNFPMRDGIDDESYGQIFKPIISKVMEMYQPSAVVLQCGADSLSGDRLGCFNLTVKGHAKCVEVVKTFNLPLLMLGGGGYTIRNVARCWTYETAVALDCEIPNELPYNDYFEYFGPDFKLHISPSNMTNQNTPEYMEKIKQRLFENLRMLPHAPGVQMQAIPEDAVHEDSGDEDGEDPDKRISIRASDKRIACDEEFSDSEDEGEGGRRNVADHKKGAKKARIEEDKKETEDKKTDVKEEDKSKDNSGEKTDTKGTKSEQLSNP

HDAC3/NcoR2 = HDAC3/NcoR2 (Homo sapiens, UniProt O15379); assay: as above
HDAC3/NcoR2, sequence (O15379 whole entry): as the sequence (O15379 whole entry) above
HDAC3/NcoR2, sequence (Q9Y618 395-489 partner limits assumed): as the sequence (Q9Y618 395-489 partner limits assumed) above

[11] = tested on: acetylated α‐tubulin (HDAC6 activity) in MCF‐7 cells; assay: Western blot target engagement in MCF-7 cells: acetylated α-tubulin; format: cell-based, human; settings: MCF-7 cell lysates after 24-hour treatment
MCF‐7 cells = assay: Modified wound healing (migration) assay; format: cell-based, human; settings: MCF-7, 10 μM, followed over 97 h, compared to DMSO control
[12] = tested on: T‐47D breast cancer cell line; assay: WST-8 cell viability assay; settings: Homo sapiens, T47D, 120 h, read-out: IC50 T‐47D
[13] = tested on: MCF‐7 breast cancer cell line; assay: WST-8 cell viability assay; settings: Homo sapiens, MCF7, 120 h, read-out: IC50 MCF‐7
[14] = tested on: BT‐474 breast cancer cell line; assay: WST-8 cell viability assay; settings: Homo sapiens, BT-474, 120 h, read-out: IC50 BT‐474
HDAC2 [15] = biological target: T3, HDAC2; assay: IC50-shift experiments (varied preincubation time); format: biochemical; set-up: purchased BPS Bioscience 50052; settings: triplicates
human recombinant HDAC6 = biological target: T4, human recombinant HDAC6 (Homo sapiens, UniProt Q9UBN7); assay: In vitro HDAC inhibition preincubation assay (ZMAL substrate)
T4 sequence (Q9UBN7 1-1215): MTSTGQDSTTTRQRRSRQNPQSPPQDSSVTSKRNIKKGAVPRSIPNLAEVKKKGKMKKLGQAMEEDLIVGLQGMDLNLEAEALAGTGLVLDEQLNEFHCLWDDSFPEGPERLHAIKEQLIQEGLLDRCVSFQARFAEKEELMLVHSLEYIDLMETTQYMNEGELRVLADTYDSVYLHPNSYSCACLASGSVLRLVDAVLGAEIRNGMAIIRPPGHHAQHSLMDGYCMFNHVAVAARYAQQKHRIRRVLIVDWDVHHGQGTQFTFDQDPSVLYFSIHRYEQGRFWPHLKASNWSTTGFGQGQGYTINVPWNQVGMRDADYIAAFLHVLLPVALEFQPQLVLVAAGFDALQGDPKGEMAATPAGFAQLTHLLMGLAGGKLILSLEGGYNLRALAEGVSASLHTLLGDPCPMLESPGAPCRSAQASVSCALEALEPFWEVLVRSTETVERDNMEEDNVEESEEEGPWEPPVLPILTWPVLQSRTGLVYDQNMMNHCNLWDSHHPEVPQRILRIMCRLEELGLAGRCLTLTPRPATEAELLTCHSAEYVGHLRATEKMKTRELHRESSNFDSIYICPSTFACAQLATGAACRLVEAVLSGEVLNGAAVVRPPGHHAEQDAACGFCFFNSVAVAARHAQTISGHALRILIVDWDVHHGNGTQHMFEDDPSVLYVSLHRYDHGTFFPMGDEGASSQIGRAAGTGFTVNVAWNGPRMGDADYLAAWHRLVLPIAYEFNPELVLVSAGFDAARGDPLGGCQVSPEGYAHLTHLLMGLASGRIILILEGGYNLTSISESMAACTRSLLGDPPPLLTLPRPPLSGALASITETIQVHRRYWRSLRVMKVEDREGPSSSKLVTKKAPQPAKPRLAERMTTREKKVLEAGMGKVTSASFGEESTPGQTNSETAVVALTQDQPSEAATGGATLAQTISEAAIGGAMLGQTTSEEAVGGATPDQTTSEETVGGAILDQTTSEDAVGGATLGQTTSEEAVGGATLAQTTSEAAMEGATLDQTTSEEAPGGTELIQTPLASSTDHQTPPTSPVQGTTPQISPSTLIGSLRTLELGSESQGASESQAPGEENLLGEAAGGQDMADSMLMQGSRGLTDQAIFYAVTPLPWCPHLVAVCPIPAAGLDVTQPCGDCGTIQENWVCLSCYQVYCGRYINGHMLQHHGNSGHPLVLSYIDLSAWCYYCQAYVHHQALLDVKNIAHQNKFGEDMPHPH

[16] = 25 °C, pH 7.4, aqueous buffer, thermodynamic from solid, pH=7.4, flask method, 25 °C, 72 h, mean ±SD, read-out: Solubility
[17] = pH 7.4, LogD7.4, slow-stirring method, 1-octanol/PBS buffer pH 7.4, 25 °C, 48 h
[18] = HDAC1 IC50, preincubation 5 min, preincubation time 5 min at 20°C
[19] = HDAC1 IC50, preincubation 30 min, preincubation time 30 min at 20°C
[20] = HDAC1 IC50, preincubation 60 min, preincubation time 60 min at 20°C
[21] = HDAC1 IC50, preincubation 120 min, preincubation time 120 min at 20°C

Structure (SMILES): O=C(CCCCCCC(=O)Nc1ccccc1)NO [vorinostat, reference compound]
solubility at 72 h ([1]; 25 °C, pH 7.4, aqueous buffer, thermodynamic from solid, PBS buffer pH 7.4, single experiment II, read-out: Solubility (II)): 259 µg/mL (≈ 980 µM)
solubility at 72 h [1, 16]: 255 ± 3.71 µg/mL (≈ 965 µM)
solubility at 72 h ([1]; pH 7.4, PBS buffer pH 7.4, mean of two experiments (SD 0.00371), read-out: Solubility): 255 µg/mL (≈ 966 µM)
solubility at 72 h ([1]; pH 7.4, PBS buffer pH 7.4, single experiment I, read-out: Solubility (I)): 252 µg/mL (≈ 952 µM)
binding mechanism at HDAC1 (HDAC1 [2]): fast‐on/fast‐off binding kinetic
binding mechanism at HDAC3 (HDAC3 [3]): fast‐on/fast‐off binding kinetic
logD at 48 h [4, 17]: 0.99
logD at 48 h ([4]; pH 7.4, LogD(7.4) (I), single slow-stirring experiment I): 1.01
logD at 48 h ([4]; pH 7.4, LogD(7.4) (II), single slow-stirring experiment II): 0.962
logD at 48 h ([4]; pH 7.4, LogD(7.4) (III), single slow-stirring experiment III): 0.999

IC50 (HDAC1 [5]; [18]): 0.093 µM
IC50 (HDAC1 [5]; [19]): 0.0574 µM
IC50 (HDAC1 [5]; [20]): 0.0483 µM
IC50 (HDAC1 [5]; [21]): 0.0356 µM
IC50 (HDAC3 [6]; HDAC3 IC50, preincubation 5 min, preincubation time 5 min at 20°C): 0.794 µM
IC50 (HDAC3 [6]; HDAC3 IC50, preincubation 30 min, preincubation time 30 min at 20°C): 0.432 µM
IC50 (HDAC3 [6]; HDAC3 IC50, preincubation 60 min, preincubation time 60 min at 20°C): 0.299 µM
IC50 (HDAC3 [6]; HDAC3 IC50, preincubation 120 min, preincubation time 120 min at 20°C): 0.171 µM
binding mechanism at HDAC1 (HDAC1 [2]): slow‐binding Mechanism II
binding mechanism at HDAC3 (HDAC3 [3]; relationship between kobs and [I], triplicates): slow-binding Mechanism II
Final slope of progression curve after 100-fold dilution (HDAC1) (HDAC1 [7]): 39.2 RFU*min^−1
Final slope of progression curve after 100-fold dilution (HDAC3) (HDAC3 [8]): 2.51 RFU*min-1
logD at 48 h (physchem): 3.19
IC50 (HDAC1 [9]): 0.0686 ± 0.0104 µM
IC50 (HDAC2 [10]): 0.128 ± 0.0145 µM
IC50 (HDAC3/NcoR2): 0.31 ± 0.0078 µM
Structure (SMILES): CN(C)c1ccc(C(=O)N(CC(=O)NCc2ccccc2)Cc2ccc(C(=O)Nc3ccccc3N)cc2)cc1 [VK‐1, reference compound]

solubility at 72 h [1, 16]: 16.5 ± 0.3 µg/mL (≈ 47.6 µM)
IC50 (HDAC1 [5]; [18]): 0.0541 µM
IC50 (HDAC1 [5]; HDAC1 IC50, preincubation 15 min, preincubation time 15 min at 20°C): 0.0535 µM
IC50 (HDAC1 [5]; [19]): 0.0445 µM
IC50 (HDAC1 [5]; [20]): 0.0408 µM
IC50 (HDAC1 [5]; [21]): 0.0254 µM
binding mechanism at HDAC1 (HDAC1 [2]): slow‐binding Mechanism II
Final slope of progression curve after 100-fold dilution (HDAC1) (HDAC1 [7]): 39.4 RFU*min^−1
IC50 [12]: 1.01 ± 0.19 µM
IC50 [13]: 11.1 ± 3.85 µM
IC50 [14]: > 8 µM
IC50 (HDAC2 [15]; HDAC2 IC50, preincubation 5 min, preincubation time 5 min at 20°C): 0.0982 µM
IC50 (HDAC2 [15]; HDAC2 IC50, preincubation 15 min, preincubation time 15 min at 20°C): 0.089 µM
IC50 (HDAC2 [15]; HDAC2 IC50, preincubation 30 min, preincubation time 30 min at 20°C): 0.083 µM
IC50 (HDAC2 [15]; HDAC2 IC50, preincubation 60 min, preincubation time 60 min at 20°C): 0.0774 µM
IC50 (HDAC2 [15]; HDAC2 IC50, preincubation 120 min, preincubation time 120 min at 20°C): 0.0632 µM
IC50 (HDAC1 [9]): 0.0132 ± 0.001 µM
selectivity for HDAC1 over HDAC3 (HDAC1 [9]; ratio of IC50 values HDAC3/HDAC1): 675 fold
IC50 (HDAC2 [10]): 0.0772 ± 0.0092 µM
IC50 (HDAC3/NcoR2): 8.91 µM
IC50 (human recombinant HDAC6): > 10 µM
logD at 48 h [4, 17]: 1.75
Structure (SMILES): CC(=O)Nc1ccc(C(=O)Nc2cc(-c3ccncc3)ccc2N)cc1 [6 d]
acetylated α‐tubulin (western blot) [11]: non‐detectable
effect on cell migration (wound closure) (MCF‐7 cells): attenuated cell migration significantly
